Reference: patent US7612049B2, “Method of inhibition the growth of algae” (priority 2007, dated 2009)

Legend:
Assay type in all cases: cell-based
[1] = test system: Microcystis flos-aquae; test: Growth inhibition of Cyanobacteria, chlorophyll-a content
Protocol: (§1) The solution of the control and sample I were centrifuged at 10000 rpm at 20° C. for 3 hours, and then the supernatant were poured out. Next, two 10 ml portions of 95% (v/v) ethanol were added to sample I and the control and mixed with the residues. Next, the solution of sample I and the control were water-bathed in 60° C. water for 30 mins to extract Chlorophyll-a. When being bathed in the water, the solution of the control and sample I were shaken every ten minutes. After that, the solutions were centrifuged at 5000 G at 20° C. for 15 minutes and the supernatants were kept. Then, the absorbance at 665 nm of the control and sample I were detected. Finally, according to the “Standard Methods for the Examination Chlorophyll-a in Water-Ethanol Extraction” issued by National Indian Education Association, Taiwan (NIEA E508.00B), the absorbance at 665 nm of the control and sample I were calibrated and the concentration of Chlorophyll-a content can be calculated by the absorbance measure.
(§2) To verify whether Cyanobacteria can be inhibited by glucosamine or not, in the following embodiment, two kinds of toxic Cyanobacteria, Microcystis aeruginosa and […]. The detailed procedures are described below.
(§3) First, four 50 ml portions of water with Microcystis aeruginosa were obtained and labeled as control and sample II, sample III, and sample IV respectively. The weight concentration of Microcystis aeruginosa cell in these four samples 883 μg/L (ppb). Next, different amount of glucosamine was added into the three samples so that the concentrations of glucosamine in samples II, III, and IV were 10 ppm, 20 ppm, and 50 ppm, respectively. After that, the control and sample II, III, and IV were cultured for 14 days with Bold's medium, and the Chlorophyll-a content of each sample were detected every 7 days. The procedures of detecting Chlorophyll-a content was the same as mentioned in embodiment I and the whole process was repeated for testing Microcystis flos-aquae.

[2] = test system: Microcystis aeruginosa; test: as above
Protocol: as §1, §2, §3

[3] = test system: fishpond water algae, especially abundant in Chlorophyta; test: Growth inhibition of algae in fishpond water, chlorophyll-a content by spectrometry; conditions: 100 ppm glucosamine
Protocol: In order to test if glucosamine inhibited the growth of algae or not, in the following embodiment, glucosamine was added to samples and then observed. Moreover, since chlorophyll-a content of algae is widely used as an indicator of the quality of freshwater bodies and the abundance of algae, the chlorophyll-a content in the sample was detected by spectrometry.
First, two 20 ml portions of water were obtained from a fishpond which contains a varieties of algae and is especially abundant in Chlorophyta. Both portions of water were labeled as control and sample I respectively. Next, 100 ppm glucosamine was added in sample I, and then the control and sample I were cultured for 28 days with Bold's medium.
The solution of the control and sample I were centrifuged at 10000 rpm at 20° C. for 3 hours, and then the supernatant were poured out. Next, two 10 ml portions of 95% (v/v) ethanol were added to sample I and the control and mixed with the residues. […] Then, the absorbance at 665 nm of the control and sample I were detected. Finally, according to the “Standard Methods for the Examination Chlorophyll-a in Water-Ethanol Extraction” issued by National Indian Education Association, Taiwan (NIEA E508.00B), the absorbance at 665 nm of the control and sample I were calibrated and the concentration of Chlorophyll-a content can be calculated by the absorbance measure.

[4] = Microcystis aeruginosa, 336 h, read-out: Inhibition efficiency (after 14 days)

N[C@H]1C(O)O[C@H](CO)[C@@H](O)[C@@H]1O (stereo partly drawn) [glucosamine] gave a Chlorophyll-a content ([1]; 10 ppm glucosamine (Sample V), 7th day, control 178 ppb) of 0 ppb, a Chlorophyll-a content ([1]; 10 ppm glucosamine (Sample V), 14th day, control 438 ppb) of 225 ppb and a Chlorophyll-a content ([1]; 20 ppm glucosamine (Sample VI), 7th day, control 178 ppb) of 3 ppb. For the same compound, the Chlorophyll-a content ([1]; 20 ppm glucosamine (Sample VI), 14th day, control 438 ppb) was 142 ppb, the Chlorophyll-a content ([1]; 50 ppm glucosamine (Sample VII), 7th day, control 178 ppb) was 15 ppb and the Chlorophyll-a content ([1]; 50 ppm glucosamine (Sample VII), 14th day, control 438 ppb) was 92 ppb. The inhibition at 10 ppm ([1]; Microcystis flos-aquae, 336 h, 10 ppm glucosamine (Sample V), read-out: Inhibition efficiency (after 14 days)) was 48.6%, the inhibition at 20 ppm ([1]; Microcystis flos-aquae, 336 h, 20 ppm glucosamine (Sample VI), read-out: Inhibition efficiency (after 14 days)) was 67.5% and the inhibition at 50 ppm ([1]; Microcystis flos-aquae, 336 h, 50 ppm glucosamine (Sample VII), read-out: Inhibition efficiency (after 14 days)) was 78.9%. The “minimum effective amount of glucosamine” value ([2]; 10 ppm divided by 0.883 mg (weight concentration of Cyanobacteria 0.883 mg/L)) was “at least 10 ppm/mg algae”, the Chlorophyll-a content ([2]; 10 ppm glucosamine (Sample II), 7th day, control 270 ppb) was 80 ppb and the Chlorophyll-a content ([2]; 10 ppm glucosamine (Sample II), 14th day, control 2657 ppb) was 1922 ppb. For the same compound, the Chlorophyll-a content ([2]; 20 ppm glucosamine (Sample III), 7th day, control 270 ppb) was 65 ppb, the Chlorophyll-a content ([2]; 20 ppm glucosamine (Sample III), 14th day, control 2657 ppb) was 1004 ppb and the Chlorophyll-a content ([2]; 50 ppm glucosamine (Sample IV), 7th day, control 270 ppb) was 41 ppb. For the same compound, the Chlorophyll-a content ([2]; 50 ppm glucosamine (Sample IV), 14th day, control 2657 ppb) was 72.3 ppb, the inhibition at 10 ppm [2, 4] was 27.6% and the inhibition at 20 ppm [2, 4] was 62.2%. The inhibition at 50 ppm [2, 4] was 97.2%, the “algae bloom observed after culture” value ([3]; 28 days, Bold's medium) was “the algae in the control bloomed, but not sample I” and the “concentration of Chlorophyll-a content” value ([3]; cultured 28 days with Bold's medium, control 652 ppb) was 74 ppb.
